Measurements published in patent US8232401B2 (Japan Tobacco Inc., priority 2002, dated 2012).

The compounds below were run against T1, HIV integrase (Human immunodeficiency virus type 1 group M subtype B, UniProt P12497, F1332H) (assay: Determination of enzyme (HIV integrase) inhibitory activity (strand transfer, microtiter plate, absorbance at 450 nm)). Conditions: recombinant HIV integrase (F185H) expressed in E. coli; donor DNA on streptavidin plate, digoxigenin target DNA; 37° C.
T1 construct: HIV integrase full length gene; made in house; host or cells: Escherichia coli BL21(DE3)
Format: biochemical, HIV (Human Immunodeficiency Virus (type 1))

Row | SMILES | IC50
1 | COc1cc(Cc2cccc(Cl)c2Cl)cc2c(=O)c(C(=O)O)cn(CCO)c12 [Example 3-14, 6-(2,3-Dichlorobenzyl)-1-(2-hydroxyethyl)-8-methoxy-4-oxo-1,4-dihydroquinoline-3-carboxylic acid] | 14 nM
2 | O=C(O)c1cn(CCO)c2ccc(Cc3ccc(F)c(Cl)c3F)cc2c1=O [Example 3-17, 6-(3-Chloro-2,4-difluorobenzyl)-1-(2-hydroxyethyl)-4-oxo-1,4-dihydroquinoline-3-carboxylic acid] | 13 nM
3 | CCOc1cc2c(cc1Cc1cccc(Cl)c1Cl)c(=O)c(C(=O)O)cn2CCO [Example 3-20, 6-(2,3-Dichlorobenzyl)-7-ethoxy-1-(2-hydroxyethyl)-4-oxo-1,4-dihydroquinoline-3-carboxylic acid] | 10 nM
4 | O=C(O)c1cn(CCO)c2cc(Cl)c(Cc3cccc(Cl)c3Cl)cc2c1=O [Example 3-21, 7-Chloro-6-(2,3-dichlorobenzyl)-1-(2-hydroxyethyl)-4-oxo-1,4-dihydroquinoline-3-carboxylic acid] | 30 nM
5 | O=C(O)c1cn(CCO)c2cc(C(F)(F)F)c(Cc3cccc(Cl)c3Cl)cc2c1=O [Example 3-22, 6-(2,3-Dichlorobenzyl)-1-(2-hydroxyethyl)-4-oxo-7-trifluoromethyl-1,4-dihydroquinoline-3-carboxylic acid] | 790 nM
6 | C[C@@H](CO)n1cc(C(=O)O)c(=O)c2cc(Cc3cccc(Cl)c3F)ccc21 [Example 3-23, (S)-6-(3-Chloro-2-fluorobenzyl)-1-(2-hydroxy-1-methylethyl)-4-oxo-1,4-dihydroquinoline-3-carboxylic acid] | 7.2 nM
7 | C[C@H](CO)n1cc(C(=O)O)c(=O)c2cc(Cc3cccc(Cl)c3F)ccc21 [Example 3-24, (R)-6-(3-Chloro-2-fluorobenzyl)-1-(2-hydroxy-1-methylethyl)-4-oxo-1,4-dihydroquinoline-3-carboxylic acid] | 39 nM
8 | O=C(O)c1cn(CCO)c2c(C(F)(F)F)cc(Cc3cccc(Cl)c3F)cc2c1=O [Example 3-25, 6-(3-Chloro-2-fluorobenzyl)-1-(2-hydroxyethyl)-4-oxo-8-trifluoromethyl-1,4-dihydroquinoline-3-carboxylic acid] | 69 nM
9 | O=C(O)c1cn(C(CO)CO)c2ccc(Cc3cccc(Cl)c3F)cc2c1=O [Example 3-26, 6-(3-Chloro-2-fluorobenzyl)-1-[2-hydroxy-1-(hydroxymethyl)ethyl]-4-oxo-1,4-dihydroquinoline-3-carboxylic acid] | 11 nM
10 | N#Cc1cc2c(cc1Cc1cccc(Cl)c1Cl)c(=O)c(C(=O)O)cn2CCO [Example 3-27, 7-Cyano-6-(2,3-dichlorobenzyl)-1-(2-hydroxyethyl)-4-oxo-1,4-dihydroquinoline-3-carboxylic acid] | 75 nM
11 | CC(C)(C)n1cc(C(=O)O)c(=O)c2cc(Cc3cccc(Cl)c3F)ccc21 [Example 3-33, 1-tert-Butyl-6-(3-Chloro-2-fluorobenzyl)-4-oxo-1,4-dihydroquinoline-3-carboxylic acid] | 8.7 nM
12 | COc1cc(Cc2cccc(Cl)c2F)cc2c(=O)c(C(=O)O)cn(CCO)c12 [Example 3-34, 6-(3-Chloro-2-fluorobenzyl)-1-(2-hydroxyethyl)-8-methoxy-4-oxo-1,4-dihydroquinoline-3-carboxylic acid] | 11 nM
13 | Nc1cc(Cc2cccc(Cl)c2F)cc2c(=O)c(C(=O)O)cn(CCO)c12 [Example 3-35, 8-Amino-6-(3-chloro-2-fluorobenzyl)-1-(2-hydroxyethyl)-4-oxo-1,4-dihydroquinoline-3-carboxylic acid] | 11 nM
14 | O=C(O)c1cc2c(cc1Cc1cccc(Cl)c1Cl)c(=O)c(C(=O)O)cn2CCO [Example 3-36, 7-Carboxy-6-(2,3-dichlorobenzyl)-1-(2-hydroxyethyl)-4-oxo-1,4-dihydroquinoline-3-carboxylic acid] | 51 nM
15 | COc1cc(Cc2c(F)ccc(Cl)c2F)cc2c(=O)c(C(=O)O)cn(CCO)c12 [Example 3-37, 6-(3-Chloro-2,6-difluorobenzyl)-1-(2-hydroxyethyl)-8-methoxy-4-oxo-1,4-dihydroquinoline-3-carboxylic acid] | 11 nM
16 | CN(C)c1cc(Cc2cccc(Cl)c2F)cc2c(=O)c(C(=O)O)cn(CCO)c12 [Example 3-38, 6-(3-Chloro-2-fluorobenzyl)-8-dimethylamino-(2-hydroxyethyl)-4-oxo-1,4-dihydroquinoline-3-carboxylic acid] | 15 nM
17 | CC(=O)Nc1cc(Cc2cccc(Cl)c2F)cc2c(=O)c(C(=O)O)cn(CCO)c12 [Example 3-39, 8-Acetylamino-6-(3-chloro-2-fluorobenzyl)-1-(2-hydroxyethyl)-4-oxo-1,4-dihydroquinoline-3-carboxylic acid] | 49 nM
18 | CCN(CC)c1ccccc1Cc1ccc2c(c1)c(=O)c(C(=O)O)cn2CCO [Example 3-42, 6-(2-Diethylaminobenzyl)-1-(2-hydroxyethyl)-4-oxo-1,4-dihydroquinoline-3-carboxylic acid] | 720 nM

Row | SMILES | IC50
19 | CC(C)(CO)n1cc(C(=O)O)c(=O)c2cc(Cc3cccc(Cl)c3F)ccc21 [Example 3-43, 6-(3-Chloro-2-fluorobenzyl)-1-(1,1-dimethyl-2-hydroxyethyl)-4-oxo-1,4-dihydroquinoline-3-carboxylic acid] | 18 nM
20 | CCOc1cc2c(cc1Cc1cccc(Cl)c1F)c(=O)c(C(=O)O)cn2CCO [Example 3-44, 6-(3-Chloro-2-fluorobenzyl)-7-ethoxy-1-(2-hydroxyethyl)-4-oxo-1,4-dihydroquinoline-3-carboxylic acid] | 9.6 nM
21 | COc1c(Cc2cccc(Cl)c2F)cc2c(=O)c(C(=O)O)cn(CCO)c2c1OC [Example 3-45, 6-(3-Chloro-2-fluorobenzyl)-7,8-dimethoxy-1-(2-hydroxyethyl)-4-oxo-1,4-dihydroquinoline-3-carboxylic acid] | 15 nM
22 | CCOc1cc(Cc2cccc(Cl)c2F)cc2c(=O)c(C(=O)O)cn(CCO)c12 [Example 3-47, 6-(3-Chloro-2-fluorobenzyl)-8-ethoxy-1-(2-hydroxyethyl)-4-oxo-1,4-dihydroquinoline-3-carboxylic acid] | 8.6 nM
23 | CNc1cc(Cc2cccc(Cl)c2F)cc2c(=O)c(C(=O)O)cn(CCO)c12 [Example 3-48, 6-(3-Chloro-2-fluorobenzyl)-1-(2-hydroxyethyl)-8-methylamino-4-oxo-1,4-dihydroquinoline-3-carboxylic acid] | 21 nM
24 | CCCOc1cc2c(cc1Cc1cccc(Cl)c1F)c(=O)c(C(=O)O)cn2CCO [Example 3-49, 6-(3-Chloro-2-fluorobenzyl)-1-(2-hydroxyethyl)-4-oxo-7-propyloxy-1,4-dihydroquinoline-3-carboxylic acid] | 7.9 nM
25 | CN(C)/C=N/c1cc2c(cc1Cc1cccc(Cl)c1F)c(=O)c(C(=O)O)cn2CCO [Example 3-50, 6-(3-Chloro-2-fluorobenzyl)-7-(dimethylaminomethyleneamino)-1-(2-hydroxyethyl)-4-oxo-1,4-dihydroquinoline-3-carboxylic acid] | 18 nM
26 | O=C(O)c1cn(CCO)c2c(Oc3ccccc3)cc(Cc3cccc(Cl)c3F)cc2c1=O [Example 3-52, 6-(3-Chloro-2-fluorobenzyl)-1-(2-hydroxyethyl)-4-oxo-8-phenoxy-1,4-dihydroquinoline-3-carboxylic acid] | 12 nM
27 | CC(C)Oc1cc2c(cc1Cc1cccc(Cl)c1F)c(=O)c(C(=O)O)cn2CCO [Example 3-53, 6-(3-Chloro-2-fluorobenzyl)-1-(2-hydroxyethyl)-7-isopropyloxy-4-oxo-1,4-dihydroquinoline-3-carboxylic acid] | 7.9 nM
28 | CCCNc1cc(Cc2cccc(Cl)c2F)cc2c(=O)c(C(=O)O)cn(CCO)c12 [Example 3-54, 6-(3-Chloro-2-fluorobenzyl)-1-(2-hydroxyethyl)-4-oxo-8-propylamino-1,4-dihydroquinoline-3-carboxylic acid] | 6.4 nM
29 | CCNc1cc(Cc2cccc(Cl)c2F)cc2c(=O)c(C(=O)O)cn(CCO)c12 [Example 3-55, 6-(3-Chloro-2-fluorobenzyl)-8-ethylamino-1-(2-hydroxyethyl)-4-oxo-1,4-dihydroquinoline-3-carboxylic acid] | 8.7 nM
30 | COc1cc(Cc2cccc(Cl)c2F)cc2c(=O)c(C(=O)O)cn([C@@H](C)CO)c12 [Example 3-56, (S)-6-(3-Chloro-2-fluorobenzyl)-1-(2-hydroxy-1-methylethyl)-8-methoxy-4-oxo-1,4-dihydroquinoline-3-carboxylic acid] | 12 nM
31 | COc1cc(Cc2c(F)ccc(Cl)c2F)cc2c(=O)c(C(=O)O)cn([C@@H](C)CO)c12 [Example 3-57, (S)-6-(3-Chloro-2,6-difluorobenzyl)-1-(2-hydroxy-1-methylethyl)-8-methoxy-4-oxo-1,4-dihydroquinoline-3-carboxylic acid] | 15 nM
32 | CCCOc1cc(Cc2cccc(Cl)c2F)cc2c(=O)c(C(=O)O)cn(CCO)c12 [Example 3-58, 6-(3-Chloro-2-fluorobenzyl)-1-(2-hydroxyethyl)-4-oxo-8-propyloxy-1,4-dihydroquinoline-3-carboxylic acid] | 8 nM
33 | CC(C)Oc1cc(Cc2cccc(Cl)c2F)cc2c(=O)c(C(=O)O)cn(CCO)c12 [Example 3-59, 6-(3-Chloro-2-fluorobenzyl)-1-(2-hydroxyethyl)-8-isopropyloxy-4-oxo-1,4-dihydroquinoline-3-carboxylic acid] | 8 nM
34 | CC[C@@H](CO)n1cc(C(=O)O)c(=O)c2cc(Cc3cccc(Cl)c3F)ccc21 [Example 3-60, (S)-6-(3-Chloro-2-fluorobenzyl)-1-[1-(hydroxymethyl)propyl]-4-oxo-1,4-dihydroquinoline-3-carboxylic acid] | 5.5 nM
35 | CCOc1cc2c(cc1Cc1cccc(Cl)c1F)c(=O)c(C(=O)O)cn2[C@@H](C)CO [Example 3-61, (S)-6-(3-Chloro-2-fluorobenzyl)-7-ethoxy-1-(2-hydroxy-1-methylethyl)-4-oxo-1,4-dihydroquinoline-3-carboxylic acid] | 7.6 nM
